{"source": "ChEMBL document CHEMBL5678818", "about": "“Discovery of potent SOS1 inhibitors that block RAS activation via disruption of the RAS-SOS1 interaction” (Proc Natl Acad Sci U S A, 2019)", "key": {"[1]": {"target": "T1, Mitogen-activated protein kinase kinase kinase 19 (Homo sapiens) (UniProt Q56UN5)", "T1 sequence (whole entry)": "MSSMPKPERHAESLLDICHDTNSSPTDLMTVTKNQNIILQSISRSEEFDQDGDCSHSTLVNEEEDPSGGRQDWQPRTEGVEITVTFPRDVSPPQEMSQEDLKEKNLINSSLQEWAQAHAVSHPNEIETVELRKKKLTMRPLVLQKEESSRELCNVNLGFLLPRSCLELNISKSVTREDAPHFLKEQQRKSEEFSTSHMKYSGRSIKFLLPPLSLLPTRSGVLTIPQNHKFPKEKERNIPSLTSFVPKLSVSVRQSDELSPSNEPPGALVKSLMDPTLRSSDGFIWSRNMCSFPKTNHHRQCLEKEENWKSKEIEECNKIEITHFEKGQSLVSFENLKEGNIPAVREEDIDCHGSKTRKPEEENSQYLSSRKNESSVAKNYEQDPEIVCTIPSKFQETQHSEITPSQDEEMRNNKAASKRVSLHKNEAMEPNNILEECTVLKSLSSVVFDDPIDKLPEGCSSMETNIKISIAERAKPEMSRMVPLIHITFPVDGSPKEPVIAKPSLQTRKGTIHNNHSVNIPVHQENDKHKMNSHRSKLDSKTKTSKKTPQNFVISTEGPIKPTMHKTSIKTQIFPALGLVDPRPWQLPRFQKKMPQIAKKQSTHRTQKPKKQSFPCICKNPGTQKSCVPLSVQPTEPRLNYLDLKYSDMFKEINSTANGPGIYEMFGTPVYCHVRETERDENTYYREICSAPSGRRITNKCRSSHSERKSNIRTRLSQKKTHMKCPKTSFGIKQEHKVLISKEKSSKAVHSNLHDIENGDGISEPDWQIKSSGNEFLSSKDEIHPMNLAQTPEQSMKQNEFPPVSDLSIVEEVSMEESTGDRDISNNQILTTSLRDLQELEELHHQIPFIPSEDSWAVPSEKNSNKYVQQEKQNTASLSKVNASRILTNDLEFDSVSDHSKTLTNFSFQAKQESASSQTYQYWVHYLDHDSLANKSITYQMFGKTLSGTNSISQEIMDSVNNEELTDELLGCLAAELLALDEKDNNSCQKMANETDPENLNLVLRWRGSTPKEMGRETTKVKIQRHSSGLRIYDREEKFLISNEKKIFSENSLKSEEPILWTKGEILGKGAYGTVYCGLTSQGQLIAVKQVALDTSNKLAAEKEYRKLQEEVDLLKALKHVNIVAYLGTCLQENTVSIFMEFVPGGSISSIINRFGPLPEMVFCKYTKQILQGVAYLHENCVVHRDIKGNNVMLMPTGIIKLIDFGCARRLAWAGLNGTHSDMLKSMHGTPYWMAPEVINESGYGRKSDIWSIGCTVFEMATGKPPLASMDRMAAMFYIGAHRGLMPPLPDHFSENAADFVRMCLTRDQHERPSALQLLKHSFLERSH", "test": "Inhibition of YSK4 (unknown origin) assessed as residual activity at 100 nM by KINOMEscan analysis relative to control"}, "[2]": {"target": "T2, cGMP-dependent protein kinase 1 (Homo sapiens) (UniProt Q13976)", "T2 sequence (whole entry)": "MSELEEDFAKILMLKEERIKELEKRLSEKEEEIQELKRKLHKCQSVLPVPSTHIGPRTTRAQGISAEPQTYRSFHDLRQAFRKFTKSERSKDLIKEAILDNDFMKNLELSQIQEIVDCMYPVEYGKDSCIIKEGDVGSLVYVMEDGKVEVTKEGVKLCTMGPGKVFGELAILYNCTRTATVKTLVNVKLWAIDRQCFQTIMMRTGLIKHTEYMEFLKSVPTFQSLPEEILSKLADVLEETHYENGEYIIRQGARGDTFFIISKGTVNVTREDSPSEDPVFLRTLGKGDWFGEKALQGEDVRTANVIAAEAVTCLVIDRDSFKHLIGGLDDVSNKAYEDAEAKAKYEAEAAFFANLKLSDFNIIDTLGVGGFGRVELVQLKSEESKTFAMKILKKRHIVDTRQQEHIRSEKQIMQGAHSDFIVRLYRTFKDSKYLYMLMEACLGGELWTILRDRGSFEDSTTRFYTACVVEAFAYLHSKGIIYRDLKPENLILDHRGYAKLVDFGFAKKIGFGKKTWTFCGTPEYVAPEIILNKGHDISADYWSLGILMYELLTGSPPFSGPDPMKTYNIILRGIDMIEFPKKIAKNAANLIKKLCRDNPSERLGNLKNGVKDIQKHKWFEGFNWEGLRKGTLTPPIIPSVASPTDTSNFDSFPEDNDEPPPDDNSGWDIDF", "test": "Inhibition of PRKG1 (unknown origin) assessed as residual activity at 100 nM by KINOMEscan analysis relative to control"}, "[3]": {"target": "T3, Phosphorylase b kinase gamma catalytic chain, liver/testis isoform (Homo sapiens) (UniProt P15735)", "T3 sequence (whole entry)": "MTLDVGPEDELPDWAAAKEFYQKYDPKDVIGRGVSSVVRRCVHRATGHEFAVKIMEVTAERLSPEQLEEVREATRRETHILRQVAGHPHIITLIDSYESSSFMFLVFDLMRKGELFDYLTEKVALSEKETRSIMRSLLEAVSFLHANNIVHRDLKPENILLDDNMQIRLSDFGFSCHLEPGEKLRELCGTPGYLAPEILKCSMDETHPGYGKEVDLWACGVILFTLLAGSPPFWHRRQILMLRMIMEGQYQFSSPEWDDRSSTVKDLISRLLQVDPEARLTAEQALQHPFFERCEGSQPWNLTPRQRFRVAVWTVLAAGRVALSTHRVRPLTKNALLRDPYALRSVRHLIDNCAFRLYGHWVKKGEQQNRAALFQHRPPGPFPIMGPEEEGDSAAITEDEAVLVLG", "test": "Inhibition of PHKG2 (unknown origin) assessed as residual activity at 100 nM by KINOMEscan analysis relative to control"}}, "data": [{"smiles": "COc1cc2ncnc(N[C@H](C)c3cccc4ccccc34)c2cc1OC", "values": [{"measurement": "Activity", "setting": "[1]", "value": 92, "unit": "%"}, {"measurement": "Activity", "setting": "[2]", "value": 96, "unit": "%"}, {"measurement": "Activity", "setting": "[3]", "value": 100, "unit": "%"}]}]}
